≈ marks a conversion by molar mass, not a printed value. Like-named read-outs stand apart in the source and are kept apart here.
How the values were obtained:
Type in all cases: cell-based
Yersinia enterocolitica = assay: MIC by agar dilution (NCCLS M7-A4), 288 enteropathogenic isolates, eight quinolones; details: Yersinia enterocolitica (n = 22)
Moraxella catarrhalis [1] = assay: MIC by agar dilution (NCCLS), 411 isolates Buenos Aires 1998-99; details: Moraxella catarrhalis (n = 59)
Haemophilus influenzae = assay: MIC by NCCLS reference broth microdilution, 450 respiratory tract pathogens; details: Haemophilus influenzae; for MIC90: read-out: MIC90
Moraxella catarrhalis [2] = assay: as above
Staphylococcus aureus = assay: microbe, parasite or virus in culture
E. coli = assay: microbe, parasite or virus in culture; details: Escherichia coli; for MIC50 / MIC90: E. coli (13 strains), quinolone-resistant; for MIC50: read-out: MIC50; for MIC90: read-out: MIC90
Streptococcus pyogenes = assay: MIC by NCCLS broth microdilution, 1100 Japanese clinical isolates 1997-1998; details: Streptococcus pyogenes (n=51)
Escherichia coli = assay: as above; details: for MIC50 / MIC90: Escherichia coli
Klebsiella oxytoca = assay: as above; details: Klebsiella oxytoca (n=40)
Enterobacter aerogenes = assay: as above; details: Enterobacter aerogenes (n=35); for MIC50 / MIC90: Klebsiella aerogenes
Proteus vulgaris = assay: as above
Salmonella spp. = assay: MIC by agar dilution (NCCLS M7-A4), 288 enteropathogenic isolates, gemifloxacin and 15 other antimicrobials
[3] = Haemophilus influenzae (n = 100)
[4] = Staphylococcus aureus, S. aureus KU2240, mutant type Wild (wild strain)
[5] = Staphylococcus aureus, S. aureus KU2243, mutant type G+T (DNA gyrase and topoisomerase IV)
[6] = Staphylococcus aureus, S. aureus KU2246, mutant type T (DNA topoisomerase IV)
[7] = E. coli KU1029, mutant type SP (spontaneous mutant in the DNA gyrase)
[8] = E. coli KU1034, mutant type GA (DNA gyrase A)
[9] = E. coli KU1035, mutant type GA (DNA gyrase A)
[10] = E. coli KU1036, mutant type GB (DNA gyrase B)
[11] = Escherichia coli ciprofloxacin resistant (n=5)
[12] = Escherichia coli ciprofloxacin susceptible (n=37)
[13] = Escherichia coli ciprofloxacin resistant (n=5), values marked *: MIC80 value

C[C@H]1COc2c(N3CCN(C)CC3)c(F)cc3c(=O)c(C(=O)O)cn1c23 [Levofloxacin, levofloxacin]
% Susceptible (Yersinia enterocolitica): 100% | MIC50 (Yersinia enterocolitica): 0.06 µg/mL (≈ 0.166 µM) | MIC90 (Yersinia enterocolitica): 0.06 µg/mL (≈ 0.166 µM) | MIC Range (Yersinia enterocolitica): 0.03 to 0.5 µg/mL | MIC Range (Moraxella catarrhalis [1]): ≤0.004 to 0.03 µg/mL | MIC90 (Moraxella catarrhalis [1]; read-out: MIC90): 0.03 µg/mL (≈ 0.083 µM) | MIC (Haemophilus influenzae; [3]): 0.0075 to 0.5 µg/mL (≈ 0.0208 to 1.38 µM) | MIC50 (Haemophilus influenzae; [3]): 0.015 µg/mL (≈ 0.0415 µM) | MIC90 (Haemophilus influenzae; [3]): 0.03 µg/mL (≈ 0.083 µM) | MIC (Haemophilus influenzae; β-lactamase negative (n = 80)): 0.0075 to 0.5 µg/mL (≈ 0.0208 to 1.38 µM) | MIC50 (Haemophilus influenzae; β-lactamase negative (n = 80)): 0.015 µg/mL (≈ 0.0415 µM) | MIC90 (Haemophilus influenzae; β-lactamase negative (n = 80)): 0.015 µg/mL (≈ 0.0415 µM) | MIC (Haemophilus influenzae; β-lactamase positive (n = 20)): 0.0075 to 0.03 µg/mL (≈ 0.0208 to 0.083 µM) | MIC50 (Haemophilus influenzae; β-lactamase positive (n = 20)): 0.015 µg/mL (≈ 0.0415 µM) | MIC90 (Haemophilus influenzae; β-lactamase positive (n = 20)): 0.03 µg/mL (≈ 0.083 µM) | MIC (Moraxella catarrhalis [2]; Moraxella catarrhalis (n = 50)): 0.00375 to 0.03 µg/mL (≈ 0.0104 to 0.083 µM) | MIC50 (Moraxella catarrhalis [2]; Moraxella catarrhalis (n = 50)): 0.015 µg/mL (≈ 0.0415 µM) | MIC90 (Moraxella catarrhalis [2]; Moraxella catarrhalis (n = 50)): 0.03 µg/mL (≈ 0.083 µM) | MIC (Moraxella catarrhalis [2]; β-lactamase negative (n = 13)): 0.00375 to 0.03 µg/mL (≈ 0.0104 to 0.083 µM) | MIC50 (Moraxella catarrhalis [2]; β-lactamase negative (n = 13)): 0.03 µg/mL (≈ 0.083 µM) | MIC90 (Moraxella catarrhalis [2]; β-lactamase negative (n = 13)): 0.03 µg/mL (≈ 0.083 µM) | MIC (Moraxella catarrhalis [2]; β-lactamase positive (n = 37)): 0.00375 to 0.03 µg/mL (≈ 0.0104 to 0.083 µM) | MIC50 (Moraxella catarrhalis [2]; β-lactamase positive (n = 37)): 0.015 µg/mL (≈ 0.0415 µM) | MIC90 (Moraxella catarrhalis [2]; β-lactamase positive (n = 37)): 0.03 µg/mL (≈ 0.083 µM) | MIC Range (Staphylococcus aureus; Methicillin-resistant (38)): 0.25 to 128 µg/mL | MIC Range (Staphylococcus aureus; Methicillin-susceptible (9)): 0.125 to 1 µg/mL | MIC50 (Staphylococcus aureus; Staphylococcus aureus, Methicillin-resistant (38)): 8 µg/mL (≈ 22.1 µM) | MIC90 (Staphylococcus aureus; Staphylococcus aureus, Methicillin-susceptible (9), read-out: MIC90): 1 µg/mL (≈ 2.77 µM) | MIC (Staphylococcus aureus; [4]): 0.25 µg/mL (≈ 0.692 µM) | MIC (Staphylococcus aureus; [5]): > 128 µg/mL | MIC (Staphylococcus aureus; Staphylococcus aureus, S. aureus KU2245, mutant type G+T (DNA gyrase and topoisomerase IV)): 32 µg/mL (≈ 88.6 µM) | MIC (Staphylococcus aureus; [6]): 1 µg/mL (≈ 2.77 µM) | MIC50 (E. coli): 0.125 µg/mL (≈ 0.346 µM) | MIC90 (E. coli): 1 µg/mL (≈ 2.77 µM) | MIC (E. coli; [7]): 0.063 µg/mL (≈ 0.174 µM) | MIC (E. coli; E. coli KU1030, mutant type SP): 0.125 µg/mL (≈ 0.346 µM) | MIC (E. coli; E. coli KU1031, mutant type SP): 0.063 µg/mL (≈ 0.174 µM) | MIC (E. coli; E. coli KU1032, mutant type SP): 0.25 µg/mL (≈ 0.692 µM) | MIC (E. coli; E. coli KU1033, mutant type SP): 0.063 µg/mL (≈ 0.174 µM) | MIC (E. coli; [8]): 1 µg/mL (≈ 2.77 µM) | MIC (E. coli; [9]): 1 µg/mL (≈ 2.77 µM) | MIC (E. coli; [10]): 0.125 µg/mL (≈ 0.346 µM) | MIC (E. coli; E. coli KU1038, mutant type SP): 0.125 µg/mL (≈ 0.346 µM) | MIC (E. coli; E. coli KU1039, mutant type SP): 0.25 µg/mL (≈ 0.692 µM) | MIC (E. coli; E. coli KU1040, mutant type SP): 0.031 µg/mL (≈ 0.0858 µM) | MIC (E. coli; E. coli KU1041, mutant type SP): 0.5 µg/mL (≈ 1.38 µM) | MIC (E. coli; E. coli KU1042, mutant type SP): 0.063 µg/mL (≈ 0.174 µM) | MIC90 (Streptococcus pyogenes): 2 µg/mL (≈ 5.53 µM) | MIC Range (Streptococcus pyogenes): 0.5 to 2 µg/mL | MIC Range (Escherichia coli; [11]): 4 to 128 µg/mL | MIC Range (Escherichia coli; [12]): ≤0.008 to 0.25 µg/mL | MIC50 (Escherichia coli; [11]): 16 µg/mL (≈ 44.3 µM) | MIC90 (Escherichia coli; [13]): 16 µg/mL (≈ 44.3 µM) | MIC50 (Escherichia coli; [12]): 0.032 µg/mL (≈ 0.0886 µM) | MIC90 (Escherichia coli; [12]): 0.063 µg/mL (≈ 0.174 µM) | MIC50 (Klebsiella oxytoca): 0.063 µg/mL (≈ 0.174 µM) | MIC90 (Klebsiella oxytoca): 4 µg/mL (≈ 11.1 µM) | MIC Range (Klebsiella oxytoca): 0.016 to 16 µg/mL | MIC Range (Enterobacter aerogenes): 0.016 to 0.25 µg/mL | MIC50 (Enterobacter aerogenes): 0.032 µg/mL (≈ 0.0886 µM) | MIC90 (Enterobacter aerogenes): 0.063 µg/mL (≈ 0.174 µM) | MIC90 (Proteus vulgaris; Proteus vulgaris): 0.125 µg/mL (≈ 0.346 µM) | MIC Range (Proteus vulgaris; Proteus vulgaris (n=25)): 0.032 to 1 µg/mL | MIC50 (Proteus vulgaris; Proteus vulgaris (n=25), read-out: MIC50): 0.063 µg/mL (≈ 0.174 µM) | MIC (Salmonella spp.; S. hadar(2), isolates with MICs for ciprofloxacin ≥[…], read-out: MIC): 1 mg/L (≈ 2.77 µM) | MIC (Salmonella spp.; S. newport(1), isolate with MIC for ciprofloxacin ≥[…], read-out: MIC): 1 mg/L (≈ 2.77 µM) | MIC (Salmonella spp.; S. virchow(2), isolates with MICs for ciprofloxacin ≥[…], read-out: MIC): 0.25 mg/L (≈ 0.692 µM) | MIC (mg/L) Range (Salmonella spp.; Salmonella spp. N= 106): 0.06 to 1 mg/L | MIC (Salmonella spp.; Salmonella, S. tshiongwe(1), isolate with MIC for ciprofloxacin ≥[…], read-out: MIC): 1 mg/L (≈ 2.77 µM) | MIC (Salmonella spp.; Salmonella, read-out: MIC (mg/L) 50%, Salmonella spp. N= 106): 0.06 mg/L (≈ 0.166 µM) | MIC (Salmonella spp.; Salmonella, read-out: MIC (mg/L) 90%, Salmonella spp. N= 106): 0.25 mg/L (≈ 0.692 µM)

NC1CCN(c2nc3c(cc2F)c(=O)c(C(=O)O)cn3-c2ccc(F)cc2F)C1 (stereo not shown) [Tosufloxacin, tosufloxacin]
MIC (Staphylococcus aureus; [4]): 0.063 µg/mL (≈ 0.156 µM) | MIC (Staphylococcus aureus; Staphylococcus aureus, S. aureus KU2241, mutant type NorA (efflux-mediated quinolone resistant)): 0.125 µg/mL (≈ 0.309 µM) | MIC (Staphylococcus aureus; Staphylococcus aureus, S. aureus KU2242, mutant type T (DNA topoisomerase IV)): 0.25 µg/mL (≈ 0.618 µM) | MIC (Staphylococcus aureus; [5]): > 128 µg/mL | MIC (Staphylococcus aureus; Staphylococcus aureus, S. aureus KU2244, mutant type G (DNA gyrase)): 0.125 µg/mL (≈ 0.309 µM) | MIC (Staphylococcus aureus; [6]): 0.5 µg/mL (≈ 1.24 µM) | MIC50 (E. coli): 0.063 µg/mL (≈ 0.156 µM) | MIC90 (E. coli): 0.25 µg/mL (≈ 0.618 µM) | MIC (E. coli; [7]): 0.063 µg/mL (≈ 0.156 µM) | MIC (E. coli; E. coli KU1030, mutant type SP): 0.031 µg/mL (≈ 0.0767 µM) | MIC (E. coli; E. coli KU1031, mutant type SP): 0.031 µg/mL (≈ 0.0767 µM) | MIC (E. coli; E. coli KU1032, mutant type SP): 0.125 µg/mL (≈ 0.309 µM) | MIC (E. coli; E. coli KU1033, mutant type SP): 0.031 µg/mL (≈ 0.0767 µM) | MIC (E. coli; [8]): 0.25 µg/mL (≈ 0.618 µM) | MIC (E. coli; [9]): 0.25 µg/mL (≈ 0.618 µM) | MIC (E. coli; [10]): 0.031 µg/mL (≈ 0.0767 µM) | MIC (E. coli; E. coli KU1038, mutant type SP): 0.063 µg/mL (≈ 0.156 µM) | MIC (E. coli; E. coli KU1039, mutant type SP): 0.063 µg/mL (≈ 0.156 µM) | MIC (E. coli; E. coli KU1040, mutant type SP): ≤ 0.008 µg/mL | MIC (E. coli; E. coli KU1041, mutant type SP): 0.25 µg/mL (≈ 0.618 µM) | MIC (E. coli; E. coli KU1042, mutant type SP): 0.063 µg/mL (≈ 0.156 µM) | MIC90 (Streptococcus pyogenes): 1 µg/mL (≈ 2.47 µM) | MIC Range (Streptococcus pyogenes): 0.063 to 1 µg/mL | MIC50 (Streptococcus pyogenes; read-out: MIC50): 0.25 µg/mL (≈ 0.618 µM) | MIC Range (Escherichia coli; [12]): ≤0.008 to 0.25 µg/mL | MIC50 (Escherichia coli; [11]): 32 µg/mL (≈ 79.1 µM) | MIC90 (Escherichia coli; [13]): 32 µg/mL (≈ 79.1 µM) | MIC50 (Escherichia coli; [12]): 0.032 µg/mL (≈ 0.0791 µM) | MIC90 (Escherichia coli; [12]): 0.032 µg/mL (≈ 0.0791 µM) | MIC50 (Klebsiella oxytoca): 0.032 µg/mL (≈ 0.0791 µM) | MIC90 (Klebsiella oxytoca): 4 µg/mL (≈ 9.89 µM) | MIC Range (Klebsiella oxytoca): ≤0.008 to 16 µg/mL | MIC Range (Enterobacter aerogenes): 0.016 to 0.125 µg/mL | MIC50 (Enterobacter aerogenes): 0.016 µg/mL (≈ 0.0396 µM) | MIC90 (Enterobacter aerogenes): 0.063 µg/mL (≈ 0.156 µM) | MIC50 (Proteus vulgaris; Proteus vulgaris): 0.125 µg/mL (≈ 0.309 µM) | MIC Range (Proteus vulgaris; Proteus vulgaris (n=25)): 0.063 to 1 µg/mL | MIC90 (Proteus vulgaris; Proteus vulgaris (n=25), read-out: MIC90): 0.5 µg/mL (≈ 1.24 µM)

Source: patent EP1561465A2, “Methods of use of fluoroquinolone compounds against bacteria” (LG Life Sciences, Ltd., priority 1999, dated 2001)
